# Reference: ChEMBL document CHEMBL1201862, “PubChem BioAssay data set” (2004)
#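 These data come from cells grown in 96-well plates and exposed to compound for 48 hours at five concentrations. Here, GI50 denotes the concentration required for 50% inhibition of growth.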 Active and inactive are the calls of the source. No stated cut-off is given here; in the data, active = GI50 up to about 1.1 µM and inactive = higher.
# Assays:
# Experiment in all cases: growth of human tumour cells (NCI), 48 h
# NCI-H23 = system: NCI-H23
# SN12C = system: SN12C
# SK-OV-3 = system: SK-OV-3
# LXFL 529 = system: LXFL 529
# NCI-H460 = system: NCI-H460
# OVCAR-4 = system: OVCAR-4
# U-251 = system: U-251
# DMS-114 = system: DMS-114
# HCT-15 = system: HCT-15
# 786-0 = system: 786-0
# SNB-75 = system: SNB-75
# UO-31 = system: UO-31
# SF-268 = system: SF-268
# Malme-3M = system: Malme-3M
# MOLT-4 = system: MOLT-4
# K562 = system: K562
# SF-295 = system: SF-295
# IGROV-1 = system: IGROV-1
# CAKI-1 = system: CAKI-1
# RPMI-8226 = system: RPMI-8226
# A549 = system: A549
# UACC-257 = system: UACC-257
# DLD-1 = system: DLD-1
# NCI-H226 = system: NCI-H226
# M14 = system: M14
# RXF 393 = system: RXF 393
# HL-60 = system: HL-60
# HCT-116 = system: HCT-116
# EKVX = system: EKVX
# OVCAR-5 = system: OVCAR-5
# HT-29 = system: HT-29
# M19-MEL = system: M19-MEL
# ACHN = system: ACHN
# KM-20L2 = system: KM-20L2
# OVCAR-8 = system: OVCAR-8
# HOP-18 = system: HOP-18
# UACC-62 = system: UACC-62
# OVCAR-3 = system: OVCAR-3
# HOP-92 = system: HOP-92
# A498 = system: A498
# SR = system: SR
# HCC 2998 = system: HCC 2998
# KM12 = system: KM12
# XF498 = system: XF498
# SF-539 = system: SF-539
# NCI-H522 = system: NCI-H522
# LOX IMVI = system: LOX IMVI
# RXF 631 = system: RXF 631
# SK-MEL-5 = system: SK-MEL-5
# HOP-62 = system: HOP-62
# SW-620 = system: SW-620
# CCRF-CEM = system: CCRF-CEM
# COLO 205 = system: COLO 205
# SNB-19 = system: SNB-19
# TK-10 = system: TK-10
# SK-MEL-28 = system: SK-MEL-28
structure (smiles),measurement,setting,value
Nc1nc(S)nc(C(=O)Nc2ccc(Cl)c(Cl)c2)c1-c1ccc(Cl)cc1,GI50,NCI-H23,> 100 µM (inactive)
same,GI50,SN12C,> 100 µM (inactive)
same,GI50,SK-OV-3,> 100 µM (inactive)
same,GI50,LXFL 529,> 100 µM (inactive)
same,GI50,NCI-H460,> 100 µM (inactive)
same,GI50,OVCAR-4,> 100 µM (inactive)
same,GI50,U-251,> 100 µM (inactive)
same,GI50,DMS-114,> 100 µM (inactive)
same,GI50,HCT-15,> 100 µM
same,GI50,786-0,> 100 µM (inactive)
same,GI50,SNB-75,> 100 µM (inactive)
same,GI50,UO-31,> 100 µM (inactive)
same,GI50,SF-268,> 100 µM (inactive)
same,GI50,Malme-3M,> 100 µM (inactive)
same,GI50,MOLT-4,14.7 µM (inactive)
same,GI50,K562,90.8 µM (inactive)
same,GI50,SF-295,> 100 µM (inactive)
same,GI50,IGROV-1,> 100 µM (inactive)
same,GI50,CAKI-1,> 100 µM (inactive)
same,GI50,RPMI-8226,62.7 µM (inactive)
same,GI50,A549,> 100 µM (inactive)
same,GI50,UACC-257,> 100 µM (inactive)
same,GI50,DLD-1,> 100 µM (inactive)
same,GI50,NCI-H226,> 100 µM (inactive)
same,GI50,M14,87.1 µM (inactive)
same,GI50,RXF 393,> 100 µM (inactive)
same,GI50,HL-60,> 100 µM (inactive)
same,GI50,HCT-116,45.4 µM (inactive)
same,GI50,EKVX,> 100 µM (inactive)
same,GI50,OVCAR-5,> 100 µM (inactive)
same,GI50,HT-29,71.4 µM (inactive)
same,GI50,M19-MEL,> 100 µM (inactive)
same,GI50,ACHN,> 100 µM (inactive)
same,GI50,KM-20L2,> 100 µM (inactive)
same,GI50,OVCAR-8,> 100 µM (inactive)
same,GI50,HOP-18,> 100 µM (inactive)
same,GI50,UACC-62,> 100 µM (inactive)
same,GI50,OVCAR-3,> 100 µM (inactive)
same,GI50,HOP-92,93.1 µM (inactive)
same,GI50,A498,> 100 µM (inactive)
same,GI50,SR,76.6 µM (inactive)
same,GI50,HCC 2998,> 100 µM (inactive)
same,GI50,KM12,> 100 µM (inactive)
same,GI50,XF498,> 100 µM (inactive)
same,GI50,SF-539,> 100 µM (inactive)
same,GI50,NCI-H522,> 100 µM (inactive)
same,GI50,LOX IMVI,> 100 µM (inactive)
same,GI50,RXF 631,> 100 µM (inactive)
same,GI50,SK-MEL-5,> 100 µM (inactive)
same,GI50,HOP-62,> 100 µM (inactive)
same,GI50,SW-620,> 100 µM (inactive)
same,GI50,CCRF-CEM,> 100 µM (inactive)
same,GI50,COLO 205,> 100 µM (inactive)
same,GI50,SNB-19,> 100 µM (inactive)
same,GI50,TK-10,> 100 µM (inactive)
same,GI50,SK-MEL-28,> 100 µM (inactive)
